Key:
Assay type in all cases: cell-based
Conditions in all cases: 72 h; human CD4+ T cells under TH17-polarizing conditions, 3 days, supernatant ELISA
[1] = test system: IL-21; assay: Human TH17 Cytokine Inhibition as measured by ELISA (IL-21)
Experimental: (§1) Peripheral blood mononuclear cells (PBMCs) were sourced from freshly prepared leukocyte enriched plasma (buffy coat) from healthy donors (New York Blood Center). PBMCs were isolated by density gradient centrifugation using Ficoll-Paque™ PLUS (GE Healthcare). Human CD4+ T cells were seeded into 96-well plates (5×10^4 cells/well) and activated with plate-bound anti-human (h)-CD3 antibody and soluble h-aCD28 (both at 1 ug/ml; eBioscience) and differentiated into TH17 cells with 20 ng/mL h-IL-6, 5 ng/mL h-TGF-β1, 10 ng/mL h-IL-23 (eBioscience) and 10 ng/mL IL-1β (Miltenyi Biotec) in serum-free TexMACS Medium (Miltenyi Biotec) supplemented with 1% Penicillin/Streptomycin (Lonza) for 3 days. CD4+ T cells propagated under TH17-polarizing conditions were cultured in the presence or absence of various concentrations of compounds with a final concentration of 0.1% DMSO. Supernatants were collected and stored at −20° C. until assayed for IL-17A, IL-17F and IL-21 levels by “Ready-Set-Go” ELISA kits (eBioscience) as per manufacturer's instructions. Endpoint absorbance was read at 450 nm using a microplate reader (Perkin Elmer).

[2] = test system: IL-17A; assay: Human TH17 Cytokine Inhibition as measured by ELISA (IL-17A)
Experimental: as §1

[3] = test system: IL-17F; assay: Human TH17 Cytokine Inhibition as measured by ELISA (IL-17F)
Experimental: as §1

Structure (SMILES)	IC50 [1]	IC50 [2]	IC50 [3]
CC1(C)CC(Cn2ccc3cc(-c4cn[nH]c4)ccc32)CN1C(=O)c1ccccc1 (stereo not drawn) [Example 108, (4-((5-(1H-pyrazol-4-yl)-1H-indol-1-yl)methyl)-2,2-dimethylpyrrolidin-1-yl)(phenyl)methanone]	< 10 µM	< 10 µM	< 10 µM
CC1(C)CC(Cn2ccc3cc(-c4cn[nH]c4)ccc32)CN1C(=O)Cc1ccccc1 (stereo not drawn) [Example 109]	< 10 µM	< 10 µM	< 10 µM
CC1(C)CC(Cn2ccc3cc(-c4cn[nH]c4)ccc32)CN1C(=O)CCc1ccccc1 (stereo not drawn) [Example 110]	< 10 µM	< 10 µM	< 10 µM
CC1(C)CC(Cn2ccc3cc(-c4cn[nH]c4)ccc32)CN1C(=O)CC1CCCCC1 (stereo not drawn) [Example 111]	< 10 µM	< 10 µM	< 10 µM
O=C(CCc1ccccc1)N1CCC(Cn2ccc3cc(-c4cnn(CCO)c4)ccc32)CC1 [Example 118, 1-(4-((5-(1-(2-hydroxyethyl)-1H-pyrazol-4-yl)-1H-indol-1-yl)methyl)piperidin-1-yl)-3-phenylpropan-1-one]	< 10 µM	< 10 µM	< 10 µM
NC(=O)Cn1cc(-c2ccc3c(ccn3CC3CCN(C(=O)CCc4ccccc4)CC3)c2)cn1 [Example 119, 2-(4-(1-((1-(3-phenylpropanoyl)piperidin-4-yl)methyl)-1H-indol-5-yl)-1H-pyrazol-1-yl)acetamide]	< 10 µM	> 10 µM	> 10 µM
Cc1cc2cc(-c3cn[nH]c3)ccc2n1CC1CCN(C(=O)CCc2ccccc2)CC1 [Example 132, 1-(4-((2-methyl-5-(1H-pyrazol-4-yl)-1H-indol-1-yl)methyl)piperidin-1-yl)-3-phenylpropan-1-one]	< 10 µM	< 10 µM	< 10 µM
Cc1cc2cc(-c3cn[nH]c3)ccc2n1CC1CCN(C(=O)Cc2ccccc2)CC1 [Example 133, 1-(4-((2-methyl-5-(1H-pyrazol-4-yl)-1H-indol-1-yl)methyl)piperidin-1-yl)-2-phenylethanone]	< 10 µM	< 10 µM	< 10 µM

Continued, values first:

IC50 [1]	IC50 [2]	IC50 [3]	Structure (SMILES)
< 10 µM	< 10 µM	< 10 µM	O=C(CCc1ccccc1)N1CCC(Cn2ccc3cc(-c4c[nH]nn4)ccc32)CC1 [Example 112, 1-(4-((5-(1H-1,2,3-triazol-4-yl)-1H-indol-1-yl)methyl)piperidin-1-yl)-3-phenylpropan-1-one]
< 10 µM	< 10 µM	< 10 µM	Cn1cc(-c2ccc3c(ccn3CC3CCN(C(=O)CCc4ccccc4)CC3)c2)nn1 [Example 113, 1-(4-((5-(1-methyl-1H-1,2,3-triazol-4-yl)-1H-indol-1-yl)methyl)piperidin-1-yl)-3-phenylpropan-1-one]
< 10 µM	< 10 µM	< 10 µM	Cc1[nH]ncc1-c1ccc2c(ccn2CC2CCN(C(=O)CCc3ccccc3)CC2)c1 [Example 115, 1-(4-((5-(5-methyl-1H-pyrazol-4-yl)-1H-indol-1-yl)methyl)piperidin-1-yl)-3-phenylpropan-1-one]
< 10 µM	< 10 µM	< 10 µM	O=C(CCc1ccccc1)N1CCC(Cn2ccc3cc(-c4cn[nH]c4C(F)(F)F)ccc32)CC1 [Example 117, 3-phenyl-1-(4-((5-(5-(trifluoromethyl)-1H-pyrazol-4-yl)-1H-indol-1-yl)methyl)piperidin-1-yl)propan-1-one]
< 10 µM	< 10 µM	< 10 µM	Cc1ncc(-c2ccc3c(ccn3CC3CCN(C(=O)CCc4ccccc4)CC3)c2)s1 [Example 120, 1-(4-((5-(2-methylthiazol-5-yl)-1H-indol-1-yl)methyl)piperidin-1-yl)-3-phenylpropan-1-one]
< 10 µM	< 10 µM	< 10 µM	O=C(CCc1ccccc1)N1CCC(Cn2ccc3cc(-c4cnccn4)ccc32)CC1 [Example 121]
< 10 µM	< 10 µM	< 10 µM	Cc1ccc(-c2ccc3c(ccn3CC3CCN(C(=O)CCc4ccccc4)CC3)c2)nc1 [Example 122]
< 10 µM	< 10 µM	< 10 µM	Cc1ccncc1-c1ccc2c(ccn2CC2CCN(C(=O)CCc3ccccc3)CC2)c1 [Example 123]
< 10 µM	< 10 µM	< 10 µM	O=C(CCc1ccccc1)N1CCC(Cn2ccc3cc(-c4cncs4)ccc32)CC1 [Example 124]
< 10 µM	< 10 µM	< 10 µM	Cn1cc(-c2ccc3c(ccn3CC3CCN(C(=O)CCc4ccccc4)CC3)c2)cn1 [Example 125]

— patent US20150252022A1, “RETINOIC ACID RECEPTOR-RELATED ORPHAN RECEPTOR MODULATORS AND USES THEREOF” (INNOV17 LLC, priority 2014, published 2015)
